Test results taken from ChEMBL document CHEMBL1201862, “PubChem BioAssay data set” (2004).
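A five-concentration, 48-hour dose response in 96-well plates underlies each endpoint, interpolated linearly between surrounding concentrations. Abbreviation: GI50, concentration required for 50% inhibition of growth.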 Active and inactive are the calls of the source. Cut-off read from the data, not from the text of the source: active = GI50 up to about 1.1 µM and inactive = higher.

Legend:
Experiment in all cases: NCI anticancer screen, dose series, 48 h
KM12 = test system: KM12
SN12C = test system: SN12C
IGROV-1 = test system: IGROV-1
OVCAR-3 = test system: OVCAR-3
K562 = test system: K562
UO-31 = test system: UO-31
NCI-H226 = test system: NCI-H226
SK-OV-3 = test system: SK-OV-3
EKVX = test system: EKVX
HCC 2998 = test system: HCC 2998
MCF7 = test system: MCF7
MDA-N = test system: MDA-N
SK-MEL-28 = test system: SK-MEL-28
UACC-62 = test system: UACC-62
NCI-H522 = test system: NCI-H522
M14 = test system: M14
MDA-MB-435 = test system: MDA-MB-435
COLO 205 = test system: COLO 205
786-0 = test system: 786-0
Malme-3M = test system: Malme-3M
HOP-92 = test system: HOP-92
NCI/ADR-RES = test system: NCI/ADR-RES
OVCAR-5 = test system: OVCAR-5
BT-549 = test system: BT-549
OVCAR-8 = test system: OVCAR-8
HCT-116 = test system: HCT-116
A498 = test system: A498
SW-620 = test system: SW-620
SF-268 = test system: SF-268
MOLT-4 = test system: MOLT-4
NCI-H460 = test system: NCI-H460
SK-MEL-5 = test system: SK-MEL-5
CAKI-1 = test system: CAKI-1
NCI-H23 = test system: NCI-H23
SR = test system: SR
HCT-15 = test system: HCT-15
TK-10 = test system: TK-10
SF-295 = test system: SF-295
RXF 393 = test system: RXF 393
SNB-75 = test system: SNB-75
PC-3 = test system: PC-3
SNB-19 = test system: SNB-19
UACC-257 = test system: UACC-257
LOX IMVI = test system: LOX IMVI
HL-60 = test system: HL-60
DU-145 = test system: DU-145
HOP-62 = test system: HOP-62
MDA-MB-231 = test system: MDA-MB-231
HT-29 = test system: HT-29
A549 = test system: A549
U-251 = test system: U-251
T47D = test system: T47D
SF-539 = test system: SF-539
CCRF-CEM = test system: CCRF-CEM
SK-MEL-2 = test system: SK-MEL-2
OVCAR-4 = test system: OVCAR-4
ACHN = test system: ACHN
RPMI-8226 = test system: RPMI-8226

Compound: Cc1nc2cc3ccccc3cc2[nH]c1=O
- GI50 (KM12): 85.1 µM (inactive)
- GI50 (SN12C): > 100 µM (inactive)
- GI50 (IGROV-1): 47.9 µM (inactive)
- GI50 (OVCAR-3): 68.1 µM (inactive)
- GI50 (K562): 38.8 µM (inactive)
- GI50 (UO-31): 54.8 µM (inactive)
- GI50 (NCI-H226): 53.2 µM (inactive)
- GI50 (SK-OV-3): > 100 µM (inactive)
- GI50 (EKVX): 0.805 µM (active)
- GI50 (HCC 2998): > 100 µM (inactive)
- GI50 (MCF7): 30.2 µM (inactive)
- GI50 (MDA-N): > 100 µM (inactive)
- GI50 (SK-MEL-28): > 100 µM (inactive)
- GI50 (UACC-62): 36.3 µM (inactive)
- GI50 (NCI-H522): 59.4 µM (inactive)
- GI50 (M14): > 100 µM (inactive)
- GI50 (MDA-MB-435): > 100 µM (inactive)
- GI50 (COLO 205): > 100 µM (inactive)
- GI50 (786-0): 44.9 µM (inactive)
- GI50 (Malme-3M): > 100 µM (inactive)
- GI50 (HOP-92): 26.1 µM (inactive)
- GI50 (NCI/ADR-RES): 77.3 µM (inactive)
- GI50 (OVCAR-5): > 100 µM (inactive)
- GI50 (BT-549): > 100 µM (inactive)
- GI50 (OVCAR-8): 70.5 µM (inactive)
- GI50 (HCT-116): > 100 µM (inactive)
- GI50 (A498): 19.8 µM (inactive)
- GI50 (SW-620): > 100 µM (inactive)
- GI50 (SF-268): 39.3 µM (inactive)
- GI50 (MOLT-4): 44 µM (inactive)
- GI50 (NCI-H460): 61.1 µM (inactive)
- GI50 (SK-MEL-5): 96.2 µM (inactive)
- GI50 (CAKI-1): 38.1 µM (inactive)
- GI50 (NCI-H23): 89.5 µM (inactive)
- GI50 (SR): 78.3 µM (inactive)
- GI50 (HCT-15): 82 µM
- GI50 (TK-10): 80.2 µM (inactive)
- GI50 (SF-295): 91.2 µM (inactive)
- GI50 (RXF 393): 47.5 µM (inactive)
- GI50 (SNB-75): 24.5 µM (inactive)
- GI50 (PC-3): > 100 µM (inactive)
- GI50 (SNB-19): 92.3 µM (inactive)
- GI50 (UACC-257): > 100 µM (inactive)
- GI50 (LOX IMVI): > 100 µM (inactive)
- GI50 (HL-60): > 100 µM (inactive)
- GI50 (DU-145): > 100 µM (inactive)
- GI50 (HOP-62): 71.6 µM (inactive)
- GI50 (MDA-MB-231): 72.3 µM (inactive)
- GI50 (HT-29): > 100 µM (inactive)
- GI50 (A549): > 100 µM (inactive)
- GI50 (U-251): 55.1 µM (inactive)
- GI50 (T47D): 55.2 µM (inactive)
- GI50 (SF-539): 53.2 µM (inactive)
- GI50 (CCRF-CEM): 51.2 µM (inactive)
- GI50 (SK-MEL-2): > 100 µM (inactive)
- GI50 (OVCAR-4): 51.1 µM (inactive)

Compound: C=C1CC/C=C(\C)C(=O)C[C@@H]2[C@@H]1CC2(C)C [BUDDLEDIN C]
- GI50 (KM12): 15 µM (inactive)
- GI50 (SN12C): 1.59 µM (inactive)
- GI50 (IGROV-1): 3.26 µM (inactive)
- GI50 (OVCAR-3): 6.34 µM (inactive)
- GI50 (K562): 1.82 µM (inactive)
- GI50 (UO-31): 2.62 µM (inactive)
- GI50 (NCI-H226): 14.8 µM (inactive)
- GI50 (SK-OV-3): 20.3 µM (inactive)
- GI50 (EKVX): 7.45 µM (inactive)
- GI50 (HCC 2998): 3.4 µM (inactive)
- GI50 (MCF7): 0.561 µM (active)
- GI50 (MDA-N): 1.2 µM (inactive)
- GI50 (SK-MEL-28): 2.75 µM (inactive)
- GI50 (UACC-62): 5.96 µM (inactive)
- GI50 (NCI-H522): 0.439 µM (active)
- GI50 (M14): 3.69 µM (inactive)
- GI50 (MDA-MB-435): 1.43 µM (inactive)
- GI50 (COLO 205): 1.8 µM (inactive)
- GI50 (786-0): 0.975 µM (active)
- GI50 (Malme-3M): 2.48 µM (inactive)
- GI50 (HOP-92): 1.97 µM (inactive)
- GI50 (NCI/ADR-RES): 4.53 µM (inactive)
- GI50 (OVCAR-5): 9.46 µM (inactive)
- GI50 (BT-549): 2.45 µM (inactive)
- GI50 (OVCAR-8): 4.7 µM (inactive)
- GI50 (HCT-116): 1.17 µM (inactive)
- GI50 (A498): 8.59 µM (inactive)
- GI50 (SW-620): 1.1 µM (active)
- GI50 (SF-268): 14.1 µM (inactive)
- GI50 (MOLT-4): 0.184 µM (active)
- GI50 (NCI-H460): 2.62 µM (inactive)
- GI50 (SK-MEL-5): 2.84 µM (inactive)
- GI50 (CAKI-1): 1.38 µM (inactive)
- GI50 (NCI-H23): 5.2 µM (inactive)
- GI50 (SR): 0.0578 µM (active)
- GI50 (ACHN): 2.18 µM (inactive)
- GI50 (HCT-15): 0.689 µM
- GI50 (TK-10): 3.13 µM (inactive)
- GI50 (SF-295): 15.5 µM (inactive)
- GI50 (RXF 393): 1.85 µM (inactive)
- GI50 (SNB-75): 10.6 µM (inactive)
- GI50 (PC-3): 9.14 µM (inactive)
- GI50 (SNB-19): 12.6 µM (inactive)
- GI50 (UACC-257): 4.66 µM (inactive)
- GI50 (LOX IMVI): 1.17 µM (inactive)
- GI50 (HL-60): 0.129 µM (active)
- GI50 (DU-145): 3.16 µM (inactive)
- GI50 (HOP-62): 15.3 µM (inactive)
- GI50 (MDA-MB-231): 7.53 µM (inactive)
- GI50 (RPMI-8226): 2.02 µM (inactive)
- GI50 (HT-29): 2.44 µM (inactive)
- GI50 (A549): 13.9 µM (inactive)
- GI50 (U-251): 6.79 µM (inactive)
- GI50 (T47D): 2.31 µM (inactive)
- GI50 (SF-539): 2.31 µM (inactive)
- GI50 (CCRF-CEM): 0.0944 µM (active)
- GI50 (SK-MEL-2): 17.5 µM (inactive)
- GI50 (OVCAR-4): 0.743 µM (active)
